According to the supplement of paper PMC12592484:

Columns and labels:
Assay in all cases: drug sensitivity score (DSS2, normalised partial AUC of dose-response, 72 h CellTiter-Glo viability) (DSS (dimensionless)); higher = more sensitive (stronger growth inhibition / cytotoxicity); extreme values may be limits of the assay
[1] = system: LNCAP
Procedure, shortened: (§1)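 The drug sensitivity score reported here is a partial area under the fitted logistic dose–response curve, divided by the log of the curve's upper asymptote and computed in BREEZE; higher values denote greater sensitivity. Low-passage primary prostate cancer-associated fibroblasts, PF179T, WPMY-1, LNCaP and 22Rv1 cells were seeded into 384-well plates preloaded with compounds at five doses across a 10,000-fold range. CellTiter-Glo 2.0 luminescence gave viability at 72 h, scaled to vehicle and positive-control wells.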

[2] = system: PF179T
Procedure, shortened: as §1

[3] = system: CAF#3 (primary prostate cancer-associated fibroblasts of myCAF-like type)
Procedure, shortened: as §1

[4] = system: CAF#2 (primary prostate cancer-associated fibroblasts of iCAF-like type)
Procedure, shortened: as §1

[5] = system: CAF#7 (primary prostate cancer-associated fibroblasts of myCAF-like type)
Procedure, shortened: as §1

[6] = system: 22Rv1
Procedure, shortened: as §1

[7] = system: WPMY-1
Procedure, shortened: as §1

[8] = system: CAF#5 (primary prostate cancer-associated fibroblasts of myCAF-like type)
Procedure, shortened: as §1

[9] = system: CAF#4 (primary prostate cancer-associated fibroblasts of iCAF-like type)
Procedure, shortened: as §1

[10] = system: CAF#6 (primary prostate cancer-associated fibroblasts of iCAF-like type)
Procedure, shortened: as §1

[11] = system: CAF#1 (primary prostate cancer-associated fibroblasts of myCAF-like type)
Procedure, shortened: as §1

Compound	drug sensitivity score [1]	drug sensitivity score [2]	drug sensitivity score [3]	drug sensitivity score [4]	drug sensitivity score [5]	drug sensitivity score [6]	drug sensitivity score [7]	drug sensitivity score [8]	drug sensitivity score [9]	drug sensitivity score [10]	drug sensitivity score [11]
COc1cc(Nc2ncc(F)c(Nc3ccc4c(n3)N(COP(=O)(O)O)C(=O)C(C)(C)O4)n2)cc(OC)c1OC [Fostamatinib] (tested concentration range 0.2-2500 nM)	4.4	7.3	6.6	8.4	7	0	4.4	7.2	5.3	5.6	7.7
C[C@]12CC[C@@H]3c4ccc(O)cc4C[C@@H](CCCCCCCCC[S+]([O-])CCCC(F)(F)C(F)(F)F)[C@H]3[C@@H]1CC[C@@H]2O (stereo not given in full) [Fulvestrant] (tested concentration range 0.1-1000 nM)	0.3	0	0.2	0	0	0	0	0	0	0.1	0
CNc1nc(Nc2cn(C(C)(C)C#N)nc2C)ncc1C(F)(F)F [GNE-0877] (tested concentration range 0.1-1000 nM)	0	0	0	0	0	0	0	0	0	0	0
CCCOc1ccn2c(C(C)=O)cc(-c3ccccc3S(C)(=O)=O)c2c1 [GSK2801] (tested concentration range 1-10000 nM)	1.2	0	0	0	0	0	0	0.4	0	0	0
CCOC(=O)CCNc1cc(N2CCc3ccccc3CC2)nc(-c2ccccn2)n1 [GSK-J4] (tested concentration range 10-100000 nM)	3.5	0.3	0.6	4.3	0	2.1	0.5	0.3	3.7	0	2.1
Cc1cccc(-c2nn3c(c2-c2ccnc4ccc(C(N)=O)cc24)CCC3)n1 [Galunisertib] (tested concentration range 0.1-1000 nM)	0	0	0.1	0	0	0	0	0	0	0	0
CC(C)c1cc(-c2n[nH]c(=O)n2-c2ccc3c(ccn3C)c2)c(O)cc1O [Ganetespib] (tested concentration range 0.1-1000 nM)	21.9	20.9	16.9	20.3	15.9	23.9	24.3	22.3	18.3	14.3	24.1
CN(C)C1CCN(C(=O)c2ccc(NC(=O)Nc3ccc(-c4nc(N5CCOCC5)nc(N5CCOCC5)n4)cc3)cc2)CC1 [Gedatolisib] (tested concentration range 0.1-1000 nM)	19.8	8.1	8.9	5.1	13.1	22.5	14.8	9.8	5.6	10.9	5.9
COc1cc2ncnc(Nc3ccc(F)c(Cl)c3)c2cc1OCCCN1CCOCC1 [Gefitinib] (tested concentration range 1-10000 nM)	2.6	1.7	0.2	2	0.2	3.9	2.1	0.5	2.8	0.2	0
Nc1ccn([C@@H]2O[C@H](CO)[C@@H](O)C2(F)F)c(=O)n1 [Gemcitabine] (tested concentration range 0.1-1000 nM)	16.4	18	3.9	10	7.2	20.9	22.5	5.6	8	4.4	3.1
CCc1nc(C(N)=O)c(Nc2ccc(N3CCC(N4CCN(C)CC4)CC3)c(OC)c2)nc1NC1CCOCC1 [Gilteritinib] (tested concentration range 0.1-1000 nM)	0	1.3	0	0	0	1.7	5.2	0.1	0	0	0.3
CCN(CC)Cc1ccc2cc(COC(=O)Nc3ccc(C(=O)NO)cc3)ccc2c1 [Givinostat] (tested concentration range 0.1-1000 nM)	9.3	3.9	1.8	4.2	3.1	9.8	11.4	4.9	2.3	3.6	2.4
CN1CC[C@@H](NC(=O)Nc2ccc(C#N)cc2)C[C@@H]1c1nc2ccccc2[nH]1 [Glasdegib] (tested concentration range 0.1-1000 nM)	0	0	0.1	0	0	0	0	0	0	0.3	0
COCCNCc1ccc(-c2cc3nccc(Oc4ccc(NC(=S)NC(=O)Cc5ccc(F)cc5)cc4F)c3s2)nc1 [Glesatinib] (tested concentration range 0.2-2500 nM)	1.3	3.4	4.4	5.1	4.2	1.4	2.5	4.3	5.7	3.4	5.6
CC(C)C[C@H](NC(=O)[C@@H](COC(C)(C)C)NC(=O)[C@H](Cc1ccc(O)cc1)NC(=O)[C@H](CO)NC(=O)[C@H](Cc1c[nH]c2ccccc12)NC(=O)[C@H](Cc1cnc[nH]1)NC(=O)[C@@H]1CCC(=O)N1)C(=O)N[C@@H](CCCNC(=N)N)C(=O)N1CCC[C@H]1C(=O)NNC(N)=O [Goserelin] (tested concentration range 1-10000 nM)	0	0	0	0	0	0	0	0.2	0	0.6	0
O=S(=O)(c1cccc2c(O)nccc12)N1CCCNCC1 [Hydroxyfasudil] (tested concentration range 1.9-19000 nM)	0	0	0	0	0	0	0.3	0	0	0	0
NC(=O)NO [Hydroxyurea] (tested concentration range 100-1000000 nM)	4.6	2.4	0.5	5.5	0	3.8	5	2.5	0.2	0	1.9
O=C(O)c1ccc(O)c2ncccc12 [IOX-1] (tested concentration range 10-100000 nM)	6.9	3.9	0.3	1.7	0.4	0.9	0.8	0.8	2.6	0.8	0.1
O=C(O)CNC(=O)c1c(O)c2ccccc2n(Cc2ccccc2)c1=O [IOX-2] (tested concentration range 2.5-25000 nM)	0	0	0	0	0	0	0	0	0	0	0
C=CC(=O)N1CCC[C@@H](n2nc(-c3ccc(Oc4ccccc4)cc3)c3c(N)ncnc32)C1 [Ibrutinib] (tested concentration range 0.1-1000 nM)	0	0	0.2	0	0	0	0	0.7	0	0	0.1
C#Cc1cccc(Nc2ncnc3cc4c(cc23)OCCOCCOCCO4)c1 [Icotinib] (tested concentration range 1-10000 nM)	0	0	2.3	0	0	0.7	0	0	0	0	0.3
CC(=O)[C@]1(O)Cc2c(O)c3c(c(O)c2[C@@H](O[C@H]2C[C@H](N)[C@H](O)[C@H](C)O2)C1)C(=O)c1ccccc1C3=O [Idarubicin] (tested concentration range 0.1-1000 nM)	19.9	12.5	4.4	12.1	9.3	12.9	16.4	7.9	7.5	8.5	7.6
COc1cc(C(=O)O)ccc1NC(=O)[C@@H]1N[C@@H](CC(C)(C)C)[C@](C#N)(c2ccc(Cl)cc2F)[C@H]1c1cccc(Cl)c1F [Idasanutlin] (tested concentration range 1-10000 nM)	0	16.7	5.1	13.5	10.2	12.7	1.9	12.5	11.5	10.6	12.5
CC[C@H](Nc1ncnc2[nH]cnc12)c1nc2cccc(F)c2c(=O)n1-c1ccccc1 [Idelalisib] (tested concentration range 1-10000 nM)	10.2	5.4	4.6	4.5	3.9	2	1.3	3.6	5.6	3.2	3.4
Cc1ccc(NC(=O)c2ccc(CN3CCN(C)CC3)cc2)cc1Nc1nccc(-c2cccnc2)n1 [Imatinib] (tested concentration range 1-10000 nM)	2.2	0	1.7	2.6	0.7	1.6	0.6	0.6	2	1.7	0.3
